Laboratory results as given in the NIST ThermoML archive (doi:10.1016/j.tca.2005.08.036).

Conditions: Liquid, Capillary tube (Ostwald / Ubbelohde) method

O [water]
viscosity [mPa·s]
Conditions | 284.56 K | 304.83 K | 335.46 K | 368.64 K | 397.56 K | 435.61 K
100 kPa | 1.257 | 0.7654 | 0.4482 | 0.2938 | – | –
10000 kPa | 1.249 | 0.7725 | 0.4504 | 0.2966 | 0.2278 | 0.1679
40000 kPa | 1.231 | 0.7745 | 0.4635 | 0.3086 | 0.2358 | 0.1745
